22 compounds from paper PMC6844396, “Design, synthesis and biological evaluation of novel 1H-1,2,4-triazole, benzothiazole and indazole-based derivatives as potent FGFR1 inhibitors viafragment-based virtual screening” (Journal of Enzyme Inhibition and Medicinal Chemistry, 2019) can be followed below.

In general, IC50 refers to the point on the concentration scale where inhibition reaches its midpoint. A high value points to weaker potency. One may read the melting point as the temperature of the solid-liquid transition.

The test system of one series is SNU-16 cell. The experiment in a line: Cell proliferation assay (CCK-8 or MTT), SNU-16. In kind it is cell-based, Human. The settings on record: for IC50: SNU-16 is FGFR2-amplified cell type, 72 h. The procedure:
Human gastric cancer cell line SNU-16 was purchased from American Type Culture Collection (ATCC, Manssas, VA, USA). All the cell lines were routinely maintained in complete medium according to the suppliers’ recommendations.
Cells were seeded in 96-well tissue culture plates. On the day when seeding, the cells were exposed to various concentrations of compounds and further cultured for 72 h at 37 °C. Finally, cell proliferation was determined using Cell Counting Kit (CCK-8) or the thiazolyl blue tetrazolium bromide (MTT, from Sigma-Aldrich, St. Louis, MO, USA) assay. The IC50 values were calculated by concentration–response curve fitting using a SoftMax pro-based four-parameter method.

In the next series the target is FGFR1 (Homo sapiens, UniProt P11362). Kind of series: ELISA kinase assay, FGFR1. The settings on record: ELISA; average values from two separate experiments. In kind it is biochemical. As for the experimental part:
Elisa kinase assay. The effects of the indicated compounds on the activities of receptor tyrosine kinases were determined using enzyme-linked immunosorbent assays (ELISAs) with purified recombinant proteins. Briefly, 20 μg/mL poly (Glu,Tyr)4:1 (Sigma, St Louis, MO, USA) was pre-coated in 96-well plates as a substrate. A 50 μL aliquot of 10 μmol/L ATP solution diluted in kinase reaction buffer (50 mmol/L HEPES [pH 7.4], 50 mmol/L MgCl2, 0.5 mmol/L MnCl2, 0.2 mmol/L Na3VO4, and 1 mmol/L DTT) was added to each well; 1 μL of different compounds with indicated concentration diluted in 1% DMSO (v/v) (Sigma, St Louis, MO, USA) were then added to each reaction well. DMSO (1%, v/v) was used as the negative control. The kinase reaction was initiated by the addition of purified tyrosine kinase proteins (FGFR1, FGFR2, FGFR3, FGFR4, ALK, Bcr-Abl, EPH-A2, Flt-1, RET, c-Src, IGF1R, c-Met, EGFR, ErbB2) diluted in 49 μL of kinase reaction buffer solution. After incubation for 60 min at 37 °C, the plate was washed three times with phosphate-buffered saline (PBS) containing 0.1% Tween 20 (T-PBS). Anti-phosphotyrosine (PY99) antibody (100 μL; 1:500, diluted in 5 mg/mL BSA T-PBS) was then added. After a 30 min incubation at 37 °C, the plate was washed three times, and 100 μL horseradish peroxidase-conjugated goat anti-mouse IgG (1:2000, diluted in 5 mg/mL BSA T-PBS) was added. The plate was then incubated at 37 °C for 30 min and washed 3 times. A 100 μL aliquot of a solution containing 0.03% H2O2 and 2 mg/mL o-phenylenediamine in 0.1 mol/l citrate buffer (pH 5.5) was added. The reaction was terminated by the addition of 50 μL of 2 mol/l H2SO4 as the colour changed, and the plate was analysed using a multi-well spectrophotometer (SpectraMAX 190, Molecular Devices, Sunnyvale, CA, USA) at 490 nm. The inhibition rate (%) was calculated using the following equation: [1-(A490/A490 control)] × 100%. The IC50 values were calculated from the inhibition curves in two separate experiments.
A general note: ELISA stands for enzyme-linked immunosorbent assay.

FGFR1, sequence (P11362 22-822): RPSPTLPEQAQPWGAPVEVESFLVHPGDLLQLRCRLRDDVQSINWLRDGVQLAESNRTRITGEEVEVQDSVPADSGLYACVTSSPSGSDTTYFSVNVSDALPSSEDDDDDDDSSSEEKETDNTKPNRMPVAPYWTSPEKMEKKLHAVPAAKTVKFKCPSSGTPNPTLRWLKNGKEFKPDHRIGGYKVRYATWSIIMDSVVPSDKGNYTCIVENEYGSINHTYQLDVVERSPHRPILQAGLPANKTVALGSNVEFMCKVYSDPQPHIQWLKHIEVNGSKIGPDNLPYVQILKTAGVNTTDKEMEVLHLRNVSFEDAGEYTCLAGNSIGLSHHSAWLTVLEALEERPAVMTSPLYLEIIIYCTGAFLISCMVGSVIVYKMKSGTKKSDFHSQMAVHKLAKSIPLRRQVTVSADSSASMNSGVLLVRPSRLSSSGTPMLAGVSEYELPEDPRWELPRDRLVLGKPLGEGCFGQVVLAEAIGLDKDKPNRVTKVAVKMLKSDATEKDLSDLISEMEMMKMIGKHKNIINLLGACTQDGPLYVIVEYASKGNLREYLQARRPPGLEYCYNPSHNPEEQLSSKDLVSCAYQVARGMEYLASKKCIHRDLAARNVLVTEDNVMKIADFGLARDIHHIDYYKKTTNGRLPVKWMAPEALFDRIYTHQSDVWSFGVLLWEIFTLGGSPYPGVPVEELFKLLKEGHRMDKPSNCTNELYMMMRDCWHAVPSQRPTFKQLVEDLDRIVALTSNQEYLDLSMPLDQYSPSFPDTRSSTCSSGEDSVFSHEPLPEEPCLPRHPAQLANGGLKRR

Compound AZD4547 [reference compound] returned a half-maximal inhibitory concentration (IC50) in the series with SNU-16 cell (Table 1) of 6.1 nM.

`COc1cc(F)cc(-c2ccc3c(NC(=O)c4ccc(N5CCCN(C)CC5)cc4)n[nH]c3c2)c1` [9w, N-(6–(3-fluoro-5-methoxyphenyl)-1H-indazol-3-yl)-4–(4-methyl-1,4-diazepan-1-yl)benzamide]: the melting point was in the range of 230.4 to 234.6 °C. This compound also came in with a concentration for half-maximal inhibition (IC50) at FGFR1 of 3.3 nM. This compound also yielded an IC50 with SNU-16 cell (Homo sapiens, Table 3) of 557 nM.

Regarding `CCN1CCN(c2ccc(C(=O)Nc3n[nH]c4cc(-c5cc(Cl)cc(Cl)c5)ccc34)cc2)CC1` [9k, N-(6–(3,5-dichlorophenyl)-1H-indazol-3-yl)-4–(4-ethylpiperazin-1-yl)benzamide], the melting point lay within 226.4 to 228.7 °C. The compound also gave an IC50 at FGFR1 of 67.2 nM. In the series with SNU-16 cell (Homo sapiens, Table 2), this compound came in with a half-maximal inhibitory concentration (IC50) of 1200 nM.

As to `CCN1CCN(c2ccc(C(=O)Nc3n[nH]c4cc(-c5ccn(C)n5)ccc34)cc2)CC1` [9t, 4–(4-ethylpiperazin-1-yl)-N-(6–(1-methyl-1H-pyrazol-3-yl)-1H-indazol-3-yl) benzamide], the melting point lay within 221.6 to 224.2 °C. Also, the IC50 against FGFR1 is over 1000 nM. The IC50 in the series with SNU-16 cell (Homo sapiens, Table 2) is over 5000 nM.

With `CCN1CCN(c2ccc(C(=O)Nc3n[nH]c4cc(-c5cc(F)cc(OC)c5)ccc34)cc2)CC1` [9o, 4–(4-ethylpiperazin-1-yl)-N-(6–(3-fluoro-5-methoxyphenyl)-1H-indazol-3-yl)benzamide], the melting point is 225.5 to 227 °C. Besides, the IC50 at FGFR1 is 5.5 nM. In addition, the “enhancement of the cellular inhibition” value with SNU-16 cell (9o vs 9d, SNU-16) was determined as 1.4 fold. Also, the IC50 in the series with SNU-16 cell (Homo sapiens, Table 2) was 572 nM.

The compound `COc1cccc(-c2ccc3nc(NC(=O)c4ccc(N5CCN(C)CC5)cc4)sc3c2)c1F` [12d, N-(6–(2-fluoro-3-methoxyphenyl)benzo[d]thiazol-2-yl)-4–(4-methylpiperazin-1-yl)benzamide] gave a melting point of 232.5 to 235.2 °C. The compound further showed an IC50 against FGFR1 of over 1000 nM. The same compound yielded an IC50 in the series on SNU-16 cell (Homo sapiens, Table 1) of over 5000 nM.

Take `CCN1CCN(c2ccc(C(=O)Nc3n[nH]c4cc(-c5ccc(C)c(OC)c5)ccc34)cc2)CC1` [9i, 4–(4-ethylpiperazin-1-yl)-N-(6–(3-methoxy-4-methylphenyl)-1H-indazol-3-yl) benzamide]: the melting point was 227.3 to 231.2 °C. At FGFR1, this compound returned an IC50 of over 1000 nM. The compound also came in with an IC50 in the series on SNU-16 cell (Homo sapiens, Table 2) of over 5000 nM.

Compound `CCOc1cccc(-c2ccc3c(NC(=O)c4ccc(N5CCN(CC)CC5)cc4)n[nH]c3c2)c1` [9e, N-(6–(3-ethoxyphenyl)-1H-indazol-3-yl)-4–(4-ethylpiperazin-1-yl)benzamide] yielded a melting point of 223.6 to 226 °C. Further, at FGFR1, the half-maximal inhibitory concentration (IC50) worked out at 13.2 nM. Besides, the 50% inhibitory concentration (IC50) in the series with SNU-16 cell (Homo sapiens, Table 2) stood at 1790 nM.

As for `COc1cc(F)cc(-c2ccc3c(NC(=O)c4ccc(CN5CCN(C)CC5)cc4)n[nH]c3c2)c1` [9x, N-(6–(3-fluoro-5-methoxyphenyl)-1H-indazol-3-yl)-4-((4-methylpiperazin-1-yl)methyl)benzamide], the melting point lay within 240.3 to 242.5 °C. In addition, on FGFR1, the IC50 was over 1000 nM. The IC50 in the series with SNU-16 cell (Homo sapiens, Table 3) is over 5000 nM.

In the case of `CCN1CCN(c2ccc(C(=O)Nc3n[nH]c4cc(-c5cccc(C(=O)OC)c5)ccc34)cc2)CC1` [9h, methyl 3–(3-(4–(4-ethylpiperazin-1-yl)benzamido)-1H-indazol-6-yl)benzoate], the melting point lay in the range of 228.7 to 233.4 °C. In addition, the IC50 on FGFR1 worked out at 77.7 nM. Further, it took 757 nM to reach half-maximal inhibition with SNU-16 cell (Homo sapiens, Table 2) (IC50).

The compound `CN1CCN(c2ccc(C(=O)Nc3n[nH]c(CCc4ccccc4)n3)cc2)CC1` [18a, 4–(4-methylpiperazin-1-yl)-N-(5-phenethyl-1H-1,2,4-triazol-3-yl)benzamide] displayed a melting point of 218.1 to 222.5 °C. Also, at FGFR1, the IC50 is over 1000 nM. For the same compound, the IC50 with SNU-16 cell (Homo sapiens, Table 1) is over 5000 nM.

The compound `CCN1CCN(c2ccc(C(=O)Nc3n[nH]c4cc(-c5ccccc5OC(F)(F)F)ccc34)cc2)CC1` [9r, 4–(4-ethylpiperazin-1-yl)-N-(6–(2-(trifluoromethoxy)phenyl)-1H-indazol-3-yl)benzamide] yielded a melting point of 230.9 to 233.5 °C. For the same compound, the half-inhibitory concentration (IC50) at FGFR1 is over 1000 nM. The concentration for half-maximal inhibition (IC50) in the series on SNU-16 cell (Homo sapiens, Table 2) was over 5000 nM.

In turn, `COc1cc(F)cc(-c2ccc3c(NC(=O)c4ccc(N5C[C@@H](C)N[C@@H](C)C5)cc4)n[nH]c3c2)c1` [9v, 4-((3R,5S)-3,5-dimethylpiperazin-1-yl)-N-(6–(3-fluoro-5-methoxyphenyl)-1H-indazol-3-yl)benzamide] registered a melting point of 229.6 to 233.4 °C. The compound further yielded a half-maximal inhibitory concentration (IC50) against FGFR1 of 13.2 nM. For the same compound, the IC50 with SNU-16 cell (Homo sapiens, Table 3) is 437 nM.

With `COc1cc(F)cc(-c2ccc3c(NC(=O)c4ccc(N5CCN(C)CC5)cc4)n[nH]c3c2)c1` [9y, N-(6–(3-fluoro-5-methoxyphenyl)-1H-indazol-3-yl)-4–(4-methylpiperazin-1-yl)benzamide], the melting point is 237.4 to 241.6 °C. In addition, the half-maximal inhibitory concentration (IC50) against FGFR1 was 10.2 nM. The compound further displayed a concentration for half-maximal inhibition (IC50) in the series with SNU-16 cell (Homo sapiens, Table 3) of 639 nM.

In turn, `COc1cccc(-c2ccc3c(NC(=O)c4ccc(N5CCN(C)CC5)cc4)n[nH]c3c2)c1` [9c, N-(6–(3-methoxyphenyl)-1H-indazol-3-yl)-4–(4-methylpiperazin-1-yl)benzamide] came in with a melting point of 224.8 to 227.4 °C. This compound gave an IC50 on FGFR1 of 28.2 nM. In the series on SNU-16 cell (Homo sapiens, Table 1), this compound showed an IC50 of 843 nM.

Regarding `CCN1CCN(c2ccc(C(=O)Nc3n[nH]c4cc(-c5ccc(C(F)(F)F)cc5Cl)ccc34)cc2)CC1` [9p, N-(6–(2-chloro-4-(trifluoromethyl)phenyl)-1H-indazol-3-yl)-4–(4-ethylpiperazin-1-yl)benzamide], the melting point lay within 227.9 to 232 °C. Further, the IC50 against FGFR1 is over 1000 nM. Besides, the 50% inhibitory concentration (IC50) in the series with SNU-16 cell (Homo sapiens, Table 2) is over 5000 nM.

`CCN1CCN(c2ccc(C(=O)Nc3n[nH]c4cc(-c5cc(Cl)ccc5Cl)ccc34)cc2)CC1` [9l, N-(6–(2,5-dichlorophenyl)-1H-indazol-3-yl)-4–(4-ethylpiperazin-1-yl)benzamide] registered a melting point of 231.5 to 234.6 °C. The IC50 at FGFR1 was 50.6 nM. The compound also registered an IC50 in the series on SNU-16 cell (Homo sapiens, Table 2) of 780 nM.

As for `CCN1CCN(c2ccc(C(=O)Nc3n[nH]c4cc(-c5cc(C(F)(F)F)cc(C(F)(F)F)c5)ccc34)cc2)CC1` [9j, N-(6–(3,5-bis(trifluoromethyl)phenyl)-1H-indazol-3-yl)-4–(4-ethylpiperazin-1-yl)benzamide], the 50% inhibitory concentration (IC50) is over 1000 nM against FGFR1 and over 5000 nM in the series with SNU-16 cell (Homo sapiens, Table 2).

For the compound `CCC(C)Oc1cccc(-c2ccc3c(NC(=O)c4ccc(N5CCN(CC)CC5)cc4)n[nH]c3c2)c1` (stereo not drawn) [9g, N-(6–(3-(sec-butoxy)phenyl)-1H-indazol-3-yl)-4–(4-ethylpiperazin-1-yl)benzamide], the IC50 against FGFR1 was over 1000 nM; with SNU-16 cell (Homo sapiens, Table 2), over 5000 nM.

Consider “N-(5–(3-methoxyphenethyl)-1H-1,2,4-triazol-3-yl)-4–(4-methylpiperazin-1-yl) benzamide [18b]”, for which the IC50 on FGFR1 is over 1000 nM; in the series with SNU-16 cell (Table 1) it was over 5000 nM.

Turning to `COc1cc(OC)cc(-c2ccc3c(NC(=O)c4ccc(N5C[C@@H](C)N[C@@H](C)C5)cc4)n[nH]c3c2)c1` [9a, N-(6–(3,5-dimethoxyphenyl)-1H-indazol-3-yl)-4-((3R,5S)-3,5-dimethylpiperazin-1-yl)benzamide], the IC50 is 30.6 nM against FGFR1 and 1200 nM in the series on SNU-16 cell (Homo sapiens, Table 1).

On to `CCN1CCN(c2ccc(C(=O)Nc3n[nH]c4cc(-c5cccc(OC)c5)ccc34)cc2)CC1` [9d, 4–(4-ethylpiperazin-1-yl)-N-(6–(3-methoxyphenyl)-1H-indazol-3-yl)benzamide], for which the IC50 worked out at 15 nM against FGFR1 and 786 nM with SNU-16 cell (Homo sapiens, Table 1).
